Source: article PMC9841589, “Identification of 2-Aminoacyl-1,3,4-thiadiazoles as Prostaglandin E2 and Leukotriene Biosynthesis Inhibitors” (ACS Medicinal Chemistry Letters, 2022)

Tested on: zymosan-induced peritonitis
Assay: Zymosan-induced peritonitis in mice
Assay type: in vivo, mouse
Experimental: Figure 5 Effect of compound 3 in zymosan-induced peritonitis in mice. Mice were randomly divided into different experimental groups: control group (Ctrl), model group (zymosan + vehicle compound 3), zymosan + compound 3 (i.p. injection 30 min after i.p. injection of zymosan) group, and zymosan + dexamethasone (i.p. injection 30 min after i.p. injection of zymosan) group. At (A) 4 and (B) 24 h after injection, peritoneal exudate from each mouse was recovered, and the total cell number was evaluated. Results are expressed as mean ± SD. For statistical analysis see SI.
Figure 6 Analysis of cytokine levels collected in the peritoneal exudate of mice from different experimental groups: (A, B) IL-1β, (C, D) IL-6, (E, F) PGE2, and (G, H) IL-10. Results (normalized to exudate levels) are expressed as mean ± SD. For statistical analysis see SI.
Induction of peritonitis in mice and Enzyme-Linked Immunosorbent Assay (ELISA)
To examine the anti-inflammatory action of compound 3, we next evaluated the biological activity of
compound 3 in a mouse model of zymosan-induced peritonitis, as as previously described. 13,14 26, 27
To this aim, mice were randomly divided into different experimental groups: control group (Ctrl),
model group (zymosan + vehicle compound 3), zymosan + compound 3 (0.1, 1, and 10 mg/kg), and
zymosan + dexamethasone (3 mg/kg) group. Animals received the selected compound or
dexamethasone intraperitoneally (i.p.) 30 min after i.p. injection of zymosan (500 mg/kg)26, 27. Ctrl
and model groups received an equal volume of vehicle (PBS or DMSO/saline 1:3, respectively).
Peritoneal exudates were collected at selected time points (4 and 24 h) by washing the cavity with 2
mL of PBS. Then cell number of lavage fluids was determined by TC10 automated cell counter (Bio-
Rad, Milan, Italy) using disposable slides. The remaining lavage fluids were centrifuged at 3000 rpm
for 20 min at 4 °C, and supernatants were frozen at −80 °C for further ELISA analysis according to
the manufacturer instructions (eBioscience Co., San Diego, CA, USA)10 23 of IL-1β, IL-6, PGE 2 and
IL-10 following the procedure previously described15-17 28-30. Dexamethasone and zymosan A were
purchased from Sigma-Aldrich (Milan, Italy). DMSO was purchased from Merck (Italy). Unless
otherwise stated, all the other reagents were purchased from Carlo Erba (Milan, Italy).
The data and statistical analysis in this study comply with the international recommendations on
experimental design and analysis in preclinical pharmacology18-2031-33. The results obtained were
expressed as the mean ± S.D. or as mean ± S.E.M., as reported in detail in the figure legends. IC 50
values were calculated by nonlinear regression using GraphPad Prism Version 8.0 software (San
Diego, CA) one site binding competition. Statistical evaluation of the data was performed by one-

[1] = 10 mg/kg i.p., 4 h (P ≤ 0.05) and 24 h (P ≤ 0.01)

## O=C(Nc1nnc(-c2ccc(-c3cccc(O)c3)cc2)s1)c1ccccc1Br [compound 3]
1 mg/kg i.p., 4 and 24 h, P ≤ 0.05
  leucocyte recruitment (total cell number in peritoneal exudate): remarkable effect
10 mg/kg i.p. 30 min after zymosan, 4 h, P ≤ 0.05
  leucocyte recruitment (total cell number in peritoneal exudate): reduced
10 mg/kg i.p. 30 min after zymosan, 24 h, P ≤ 0.01
  leucocyte recruitment (total cell number in peritoneal exudate): reduced
10 mg/kg i.p., 4 and 24 h
  IL-10 level in peritoneal exudate: modulated only at 24 h
10 mg/kg i.p., 4 and 24 h (P ≤ 0.01)
  PGE2 level in peritoneal exudate: significantly reduced
[1]
  IL-1β level in peritoneal exudate: significantly reduced
  IL-6 level in peritoneal exudate: significantly reduced
